Reference: patent US4845194A, “Glycopeptide recovery process” (Eli Lilly and Company, priority 1987, dated 1989)

Experiments:
Assay in all cases: In vivo antimicrobial activity in experimentally infected mice (ED50)
Staphylococcus aureus = details: for ED50 Value Staphylococcus aureus: mg/kg × 2, doses administered subcutaneously to mice 1 and 4 hours postinfection, dose protecting 50% of animals
Procedure: (§1) The A82846 antibiotics have shown in vivo antimicrobial activity against experimentally-induced infections in laboratory animals. When two doses of test compound were administered to mice experimentally infected with the test organism, the activity observed was measured as an ED50 value [effective dose in mg/kg to protect 50% of the test animals: see Warren Wick, et al., J. Bacteriol. 81, 233-235 (1961)].
(§2) ^a mg/kg × 2; doses administered subcutaneously to mice 1 and 4

Streptococcus pneumoniae = details: for ED50 Value Streptococcus pneumoniae: mg/kg × 2, doses administered subcutaneously to mice 1 and 4 hours postinfection, dose protecting 50% of animals
Procedure: as §1, §2

Streptococcus pyogenes = details: for ED50 Value Streptococcus pyogenes: mg/kg × 2, doses administered subcutaneously to mice 1 and 4 hours postinfection, dose protecting 50% of animals
Procedure: as §1, §2

SMILES | ED50 Value Staphylococcus aureus (Staphylococcus aureus) | ED50 Value Streptococcus pneumoniae (Streptococcus pneumoniae) | ED50 Value Streptococcus pyogenes (Streptococcus pyogenes) | ED50 (Staphylococcus aureus; Staphylococcus aureus, sc, read-out: ED50 Value Staphylococcus aureus) | ED50 (Streptococcus pneumoniae; Streptococcus pneumoniae, sc, read-out: ED50 Value Streptococcus pneumoniae) | ED50 (Streptococcus pyogenes; Streptococcus pyogenes, sc, read-out: ED50 Value Streptococcus pyogenes)
CN[C@H](CC(C)C)C(=O)N[C@H]1C(=O)N[C@@H](CC(N)=O)C(=O)N[C@H]2C(=O)N[C@H]3C(=O)N[C@H](C(=O)N[C@@H](C(=O)O)c4cc(O)cc(O)c4-c4cc3ccc4O)[C@H](O[C@@H]3C[C@@](C)(N)[C@H](O)[C@@H](C)O3)c3ccc(cc3)Oc3cc2cc(c3O[C@H]2O[C@@H](CO)[C@H](O)[C@@H](O)[C@@H]2O[C@H]2C[C@](C)(N)[C@@H](O)[C@H](C)O2)Oc2ccc(cc2Cl)[C@H]1O [Compound A82846A] | 0.19 mg/kg | 0.17 mg/kg | 0.19 mg/kg |  |  | 
CN[C@H](CC(C)C)C(=O)N[C@H]1C(=O)N[C@@H](CC(N)=O)C(=O)N[C@H]2C(=O)N[C@H]3C(=O)N[C@H](C(=O)N[C@H](C(=O)O)c4cc(O)cc(O)c4-c4cc3ccc4O)[C@H](O[C@H]3C[C@](C)(N)[C@@H](O)[C@H](C)O3)c3ccc(c(Cl)c3)Oc3cc2cc(c3O[C@@H]2O[C@H](CO)[C@@H](O)[C@H](O)[C@H]2O[C@H]2C[C@](C)(N)[C@@H](O)[C@H](C)O2)Oc2ccc(cc2Cl)[C@H]1O [Compound A82846B] | 0.19 mg/kg | 0.18 mg/kg | 0.20 mg/kg |  |  | 
CN[C@@H](CC(C)C)C(=O)N[C@H]1C(=O)N[C@H](CC(N)=O)C(=O)N[C@H]2C(=O)N[C@H]3C(=O)N[C@@H](C(=O)NC(C(=O)O)c4cc(O)cc(O)c4-c4cc3ccc4O)[C@@H](O[C@H]3C[C@](C)(N)[C@H](O)[C@@H](C)O3)c3ccc(cc3)Oc3cc2cc(c3O[C@H]2O[C@@H](CO)[C@@H](O)[C@H](O)[C@@H]2O[C@H]2C[C@](C)(N)[C@H](O)[C@@H](C)O2)Oc2ccc(cc2)[C@@H]1O (stereo partly drawn) [Compound A82846C] | 2.18 mg/kg | 5.87 mg/kg | 2.71 mg/kg |  |  | 
CN[C@H](CC(C)C)C(=O)N[C@H]1C(=O)N[C@@H](CC(N)=O)C(=O)N[C@H]2C(=O)N[C@H]3C(=O)N[C@H](C(=O)N[C@H](C(=O)O)c4cc(O)cc(O)c4-c4cc3ccc4O)[C@H](O)c3ccc(c(Cl)c3)Oc3cc2cc(c3O[C@@H]2O[C@H](CO)[C@@H](O)[C@H](O)[C@H]2O[C@H]2C[C@](C)(N)[C@H](O)[C@H](C)O2)Oc2ccc(cc2Cl)[C@H]1O [Vancomycin, vancomycin, reference compound] |  |  |  | 1.3 mg/kg | 1.52 mg/kg | 0.72 mg/kg
